Test results as given in ChEMBL document CHEMBL5055643, “Sophoraflavanone G Resensitizes ABCG2-Overexpressing Multidrug-Resistant Non-Small-Cell Lung Cancer Cells to Chemotherapeutic Drugs” (J Nat Prod, 2021).

Assays:
Format in all cases: functional
A549 [1] = assay: Chemo-sensitizing activity against human A549 cells assessed as reversal fold at 1 uM measured after 72 hrs in presence of mitoxantrone by CCK8 assay relative to control
A549 [2] = assay: Chemo-sensitizing activity against becatecarin-selected ABCG2-overexpressing human A549/Bec150 cells assessed as reversal fold at 1 uM measured after 72 hrs in presence of mitoxantrone by CCK8 assay relative to control
NCI-H460 [3] = assay: Chemo-sensitizing activity against human NCI-H460 cells assessed as reversal fold at 1 uM measured after 72 hrs in presence of mitoxantrone by CCK8 assay relative to control
A549 [4] = assay: Chemo-sensitizing activity against becatecarin-selected ABCG2-overexpressing human A549/Bec150 cells assessed as reversal fold at 1 uM measured after 72 hrs in presence of topotecan by CCK8 assay relative to control
HEK293 [5] = assay: Chemo-sensitizing activity against ABCG2-overexpressing human HEK293/482R cells assessed as reversal fold at 1 uM measured after 72 hrs in presence of mitoxatrone by CCK8 assay relative to control
HEK293 [6] = assay: Chemo-sensitizing activity against ABCG2-overexpressing human HEK293 cells assessed as reversal fold at 1 uM measured after 72 hrs in presence of topotecan by CCK8 assay relative to control
NCI-H460 [7] = assay: Chemo-sensitizing activity against human NCI-H460 cells assessed as reversal fold at 1 uM measured after 72 hrs in presence of topotecan by CCK8 assay relative to control
HEK293 [8] = assay: Chemo-sensitizing activity against human HEK293 cells assessed as reversal fold at 1 uM measured after 72 hrs in presence of SN-38 by CCK8 assay relative to control
NCI-H460 [9] = assay: Chemo-sensitizing activity against mitoxantrone-selected ABCG2-overexpressing human NCI-H460/MX20 cells assessed as reversal fold at 1 uM measured after 72 hrs in presence of SN-38 by CCK8 assay relative to control
NCI-H460 [10] = assay: Chemo-sensitizing activity against mitoxantrone-selected ABCG2-overexpressing human NCI-H460/MX20 cells assessed as reversal fold at 1 uM measured after 72 hrs in presence of topotecan by CCK8 assay relative to control
A549 [11] = assay: Chemo-sensitizing activity against becatecarin-selected ABCG2-overexpressing human A549/Bec150 cells assessed as reversal fold at 1 uM measured after 72 hrs in presence of SN-38 by CCK8 assay relative to control
HEK293 [12] = assay: Chemo-sensitizing activity against human HEK293 cells assessed as reversal fold at 1 uM measured after 72 hrs in presence of mitoxatrone by CCK8 assay relative to control
NCI-H460 [13] = assay: Chemo-sensitizing activity against human NCI-H460 cells assessed as reversal fold at 1 uM measured after 72 hrs in presence of SN-38 by CCK8 assay relative to control
NCI-H460 [14] = assay: Chemo-sensitizing activity against mitoxantrone-selected ABCG2-overexpressing human NCI-H460/MX20 cells assessed as reversal fold at 1 uM measured after 72 hrs in presence of mitoxantrone by CCK8 assay relative to control
HEK293 [15] = assay: Chemo-sensitizing activity against ABCG2-overexpressing human HEK293/482R cells assessed as reversal fold at 1 uM measured after 72 hrs in presence of SN-38 by CCK8 assay relative to control
HEK293 [16] = assay: Chemo-sensitizing activity against human HEK293 cells assessed as reversal fold at 1 uM measured after 72 hrs in presence of topotecan by CCK8 assay relative to control
A549 [17] = assay: Chemo-sensitizing activity against human A549 cells assessed as reversal fold at 1 uM measured after 72 hrs in presence of SN-38 by CCK8 assay relative to control
A549 [18] = assay: Chemo-sensitizing activity against human A549 cells assessed as reversal fold at 1 uM measured after 72 hrs in presence of topotecan by CCK8 assay relative to control
KB 3-1 [19] = assay: Chemo-sensitizing activity against human KB 3-1 cells assessed as reversal fold at 1 uM measured after 72 hrs in presence of vincristine by CCK8 assay relative to control
KB-V1 [20] = assay: Chemo-sensitizing activity against ABCB1-oveexpressing human KB-V1 cells assessed as reversal fold at 1 uM measured after 72 hrs in presence of colchicine by CCK8 assay relative to control
HEK293 [21] = assay: Chemo-sensitizing activity against human HEK293 cells assessed as reversal fold at 1 uM measured after 72 hrs in presence of colchicine by CCK8 assay relative to control
HEK293 [22] = assay: Chemo-sensitizing activity against ABCB1-overexpressing human HEK293/MDR19 cells assessed as reversal fold at 1 uM measured after 72 hrs in presence of colchicine by CCK8 assay relative to control
OVCAR-8 [23] = assay: Chemo-sensitizing activity against human OVCAR-8 cells assessed as reversal fold at 1 uM measured after 72 hrs in presence of colchicine by CCK8 assay relative to control
OVCAR-8 [24] = assay: Chemo-sensitizing activity against human OVCAR-8 cells assessed as reversal fold at 1 uM measured after 72 hrs in presence of paclitaxel by CCK8 assay relative to control
KB 3-1 [25] = assay: Chemo-sensitizing activity against human KB 3-1 cells assessed as reversal fold at 1 uM measured after 72 hrs in presence of paclitaxel by CCK8 assay relative to control
HEK293 [26] = assay: Chemo-sensitizing activity against ABCB1-overexpressing human HEK293/MDR19 cells assessed as reversal fold at 1 uM measured after 72 hrs in presence of vincristine by CCK8 assay relative to control
NCI/ADR-RES [27] = assay: Chemo-sensitizing activity against ABCB1-overexpressing human NCI/ADR-RES cells assessed as reversal fold at 1 uM measured after 72 hrs in presence of vincristine by CCK8 assay relative to control
HEK293 [28] = assay: Chemo-sensitizing activity against human HEK293 cells assessed as reversal fold at 1 uM measured after 72 hrs in presence of vincristine by CCK8 assay relative to control
KB 3-1 [29] = assay: Chemo-sensitizing activity against human KB 3-1 cells assessed as reversal fold at 1 uM measured after 72 hrs in presence of colchicine by CCK8 assay relative to control
KB-V1 [30] = assay: Chemo-sensitizing activity against ABCB1-overexpressing human KB-V1 cells assessed as reversal fold at 1 uM measured after 72 hrs in presence of paclitaxel by CCK8 assay relative to control
HEK293 [31] = assay: Chemo-sensitizing activity against ABCB1-overexpressing human HEK293/MDR19 cells assessed as reversal fold at 1 uM measured after 72 hrs in presence of paclitaxel by CCK8 assay relative to control
OVCAR-8 [32] = assay: Chemo-sensitizing activity against human OVCAR-8 cells assessed as reversal fold at 1 uM measured after 72 hrs in presence of vincristine by CCK8 assay relative to control
HEK293 [33] = assay: Chemo-sensitizing activity against human HEK293 cells assessed as reversal fold at 1 uM measured after 72 hrs in presence of paclitaxel by CCK8 assay relative to control
NCI/ADR-RES [34] = assay: Chemo-sensitizing activity against ABCB1-overexpressing human NCI/ADR-RES cells assessed as reversal fold at 1 uM measured after 72 hrs in presence of colchicine by CCK8 assay relative to control
KB-V1 [35] = assay: Chemo-sensitizing activity against ABCB1-overexpressing human KB-V1 cells assessed as reversal fold at 1 uM measured after 72 hrs in presence of vincristine by CCK8 assay relative to control
NCI/ADR-RES [36] = assay: Chemo-sensitizing activity against ABCB1-overexpressing human NCI/ADR-RES cells assessed as reversal fold at 1 uM measured after 72 hrs in presence of paclitaxel by CCK8 assay relative to control

Structure (SMILES): COc1ccc2c3c([nH]c2c1)[C@H](CC(C)C)N1C(=O)[C@H](CCC(=O)OC(C)(C)C)NC(=O)[C@@H]1C3
- fold change (FC) (A549 [1]): 2
- fold change (FC) (A549 [2]): 14.9
- fold change (FC) (NCI-H460 [3]): 1.7
- fold change (FC) (A549 [4]): 9.1
- fold change (FC) (HEK293 [5]): 11.9
- fold change (FC) (HEK293 [6]): 5.8
- fold change (FC) (NCI-H460 [7]): 2.7
- fold change (FC) (HEK293 [8]): 1
- fold change (FC) (NCI-H460 [9]): 20.6
- fold change (FC) (NCI-H460 [10]): 22.6
- fold change (FC) (A549 [11]): 13.2
- fold change (FC) (HEK293 [12]): 1.1
- fold change (FC) (NCI-H460 [13]): 3
- fold change (FC) (NCI-H460 [14]): 18
- fold change (FC) (HEK293 [15]): 24.1
- fold change (FC) (HEK293 [16]): 0.9
- fold change (FC) (A549 [17]): 1.6
- fold change (FC) (A549 [18]): 1.7

Structure (SMILES): COc1cc2c(cc1OC)CN(CCc1ccc(NC(=O)c3cc(OC)c(OC)cc3NC(=O)c3cnc4ccccc4c3)cc1)CC2 [TARIQUIDAR]
- fold change (FC) (KB 3-1 [19]): 1.1
- fold change (FC) (KB-V1 [20]): 50.7
- fold change (FC) (HEK293 [21]): 1
- fold change (FC) (HEK293 [22]): 12.9
- fold change (FC) (OVCAR-8 [23]): 1
- fold change (FC) (OVCAR-8 [24]): 1
- fold change (FC) (KB 3-1 [25]): 0.9
- fold change (FC) (HEK293 [26]): 245.2
- fold change (FC) (NCI/ADR-RES [27]): 174
- fold change (FC) (HEK293 [28]): 1.5
- fold change (FC) (KB 3-1 [29]): 1.2
- fold change (FC) (KB-V1 [30]): 1281
- fold change (FC) (HEK293 [31]): 309
- fold change (FC) (OVCAR-8 [32]): 1.3
- fold change (FC) (HEK293 [33]): 1
- fold change (FC) (NCI/ADR-RES [34]): 45
- fold change (FC) (KB-V1 [35]): 786
- fold change (FC) (NCI/ADR-RES [36]): 1040
